# Measured values taken from patent US20120029187A1, “HALOALKYLSULFONANILIDE DERIVATIVE” (Nissan Chemical Industries, Ltd., priority 2009, published 2012).
# Key:
# Type in all cases: in vivo
# [1] = test system: barnyardgrass; test: Test Example 2: herbicidal effects during the vegetation period under submerged conditions; conditions: treatment during the vegetation period under submerged conditions; dose 2.52 g/a
# Outline: (§1)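 Barnyardgrass, bulrush and ducksalad were co-sown in alluvial soil flooded to 4 cm and grown in a greenhouse at 25 to 30° C. At the 1- or 2-leaf stage, water-diluted emulsifiable concentrates went onto the water surface at set doses (g/a). Herbicidal effect was scored three weeks later on a graded scale.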
# [2] = test system: ducksalad; test: as above; conditions: treatment during the vegetation period under submerged conditions; dose 2.52 g/a
# Outline: as §1
# [3] = test system: bulrush; test: as above; conditions: treatment during the vegetation period under submerged conditions; dose 2.52 g/a
# Outline: as §1
# [4] = test system: transplanted rice; test: Test Example 1: preemergence treatment under submerged conditions, effect on crop; conditions: dose 2.52 g/a
# Outline: (§2)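 Score 0–5 by mortality (5: ≥90%; 0: <5%), read 3 weeks post-application. Paddy-type cups: alluvial soil under 4 cm water, weeds seeded plus transplanted 2.5-leaf rice; diluted EC dosed onto water surface same day as sowing, g/a basis; greenhouse 25 to 30° C.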
# [5] = test system: sugar beet; test: Test Example 4: foliage treatment, effect on crop; conditions: dose 6.3 g/a, three weeks after the application
# Text: (§3) Test on the Herbicidal Effect in Foliage Treatment
# (§4) Sterilized diluvial soil was put in plastic boxes with a length of 21 cm, a width of 13 cm and a depth of 7 cm, and seeds of barnyardgrass, large crabgrass, giant foxtail, wild oat, blackgrass, velvetleaf, common ragweed, redroot pigweed, common lambsquater, posumbu knotweed, common chickweed, corn, soybean, rice, wheat and sugar beet were sown in spots and covered with an about 1.5 cm-thick soil layer. The boxes were placed in a greenhouse at 25 to 30° C. to grow the plants. After 14 days, emulsifiable concentrates containing compounds of the present invention formulated in accordance with Formulation Example 2 were uniformly applied to the foliage at predetermined doses through a small sprayer after diluted with water. Three weeks after the application, the herbicidal effects against various plants were determined on the same evaluation scale as in Test Example 1.
# (§5) A: barnyardgrass, B: bulrush, C: ducksalad, D: large crabgrass, E: giant foxtail, F: wild oat, G: water foxtail, H: Italian ryegrass, I: velvetleaf, J: common ragweed, K: redroot pigweed, L: common lambsquater, M: posumbu knotweed, N: common chickweed, O: beadstraw, a: transplanted rice, b: corn, c: soybean, d: direct-seeded rice, e: wheat, f: sugar beet.
# (§6) The doses (g/a) represents the amounts in g per 1 are (a) applied after adjustment of concentration adjustment.
# [6] = test system: wheat; test: Test Example 4: foliage treatment, effect on crop; conditions: dose 6.3 g/a, three weeks after the application
# Text: as §3, §4, §5, §6
# [7] = test system: corn; test: Test Example 4: foliage treatment, effect on crop; conditions: dose 6.3 g/a, three weeks after the application
# Text: as §3, §4, §5, §6
# [8] = test system: soybean; test: Test Example 4: foliage treatment, effect on crop; conditions: dose 6.3 g/a, three weeks after the application
# Text: as §3, §4, §5, §6
# [9] = test system: direct-seeded rice; test: Test Example 4: foliage treatment, effect on crop; conditions: dose 6.3 g/a, three weeks after the application
# Text: as §3, §4, §5, §6
# [10] = test system: common lambsquater; test: Test Example 4: herbicidal effect in foliage treatment; conditions: dose 6.3 g/a, three weeks after the application
# Outline: (§7)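 Seeds sown in sterilized diluvial soil under ~1.5 cm soil cover and grown 14 days in a greenhouse at 25 to 30° C. Emulsifiable concentrates diluted with water were then sprayed uniformly on foliage at predetermined doses (g/a). Herbicidal effect was scored three weeks after application on a graded evaluation scale.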
# [11] = test system: large crabgrass; test: as above; conditions: dose 6.3 g/a, three weeks after the application
# Outline: as §7
# [12] = test system: common ragweed; test: as above; conditions: dose 6.3 g/a, three weeks after the application
# Outline: as §7
# [13] = test system: water foxtail; test: as above; conditions: dose 6.3 g/a, three weeks after the application
# Outline: as §7
# [14] = test system: barnyardgrass; test: as above; conditions: dose 6.3 g/a, three weeks after the application
# Outline: as §7
# [15] = test system: beadstraw; test: as above; conditions: dose 6.3 g/a, three weeks after the application
# Outline: as §7
# [16] = test system: giant foxtail; test: as above; conditions: dose 6.3 g/a, three weeks after the application
# Outline: as §7
# [17] = test system: wild oat; test: as above; conditions: dose 6.3 g/a, three weeks after the application
# Outline: as §7
# [18] = test system: common chickweed; test: as above; conditions: dose 6.3 g/a, three weeks after the application
# Outline: as §7
# [19] = test system: Italian ryegrass; test: as above; conditions: dose 6.3 g/a, three weeks after the application
# Outline: as §7
# [20] = test system: sugar beet; test: Test Example 3: soil treatment, effect on crop; conditions: dose 6.3 g/a
# Text: (§8) Test on the Herbicidal Effects in Soil Treatment
# as §4, with “chickweed” for “chickweed,”, “Emulsifiable” for “The boxes were placed in a greenhouse at 25 to 30° C. to grow the plants. After 14 days, emulsifiable”, “soil surfaces” for “foliage”, “dilute” for “diluted”
# as §5, §6
# [21] = test system: wheat; test: Test Example 3: soil treatment, effect on crop; conditions: dose 6.3 g/a
# Text: as §8
# as §4, with “chickweed” for “chickweed,”, “Emulsifiable” for “The boxes were placed in a greenhouse at 25 to 30° C. to grow the plants. After 14 days, emulsifiable”, “soil surfaces” for “foliage”, “dilute” for “diluted”
# as §5, §6
# [22] = test system: corn; test: Test Example 3: soil treatment, effect on crop; conditions: dose 6.3 g/a
# Text: as §8
# as §4, with “chickweed” for “chickweed,”, “Emulsifiable” for “The boxes were placed in a greenhouse at 25 to 30° C. to grow the plants. After 14 days, emulsifiable”, “soil surfaces” for “foliage”, “dilute” for “diluted”
# as §5, §6
# [23] = test system: soybean; test: Test Example 3: soil treatment, effect on crop; conditions: dose 6.3 g/a
# Text: as §8
# as §4, with “chickweed” for “chickweed,”, “Emulsifiable” for “The boxes were placed in a greenhouse at 25 to 30° C. to grow the plants. After 14 days, emulsifiable”, “soil surfaces” for “foliage”, “dilute” for “diluted”
# as §5, §6
# [24] = test system: direct-seeded rice; test: Test Example 3: soil treatment, effect on crop; conditions: dose 6.3 g/a
# Text: as §8
# as §4, with “chickweed” for “chickweed,”, “Emulsifiable” for “The boxes were placed in a greenhouse at 25 to 30° C. to grow the plants. After 14 days, emulsifiable”, “soil surfaces” for “foliage”, “dilute” for “diluted”
# as §5, §6
# [25] = test system: barnyardgrass; test: Test Example 1: herbicidal effects in preemergence treatment under submerged conditions; conditions: dose 2.52 g/a
# Outline: as §2
# [26] = test system: ducksalad; test: as above; conditions: dose 2.52 g/a
# Outline: as §2
# [27] = test system: bulrush; test: as above; conditions: dose 2.52 g/a
# Outline: as §2
# [28] = test system: common lambsquater; test: Test Example 3: herbicidal effects in soil treatment; conditions: dose 6.3 g/a
# Outline: (§9)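 Seeds were sown in sterilized diluvial soil and covered with about 1.5 cm of soil. Compounds, formulated as emulsifiable concentrates and diluted with water, were sprayed evenly over the soil surface at set doses in g/a. Herbicidal effect was scored on a rating scale three weeks later.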
# [29] = test system: large crabgrass; test: as above; conditions: dose 6.3 g/a
# Outline: as §9
# [30] = test system: common ragweed; test: as above; conditions: dose 6.3 g/a
# Outline: as §9
# [31] = test system: water foxtail; test: as above; conditions: dose 6.3 g/a
# Outline: as §9
# [32] = test system: barnyardgrass; test: as above; conditions: dose 6.3 g/a
# Outline: as §9
# [33] = test system: giant foxtail; test: as above; conditions: dose 6.3 g/a
# Outline: as §9
# [34] = test system: wild oat; test: as above; conditions: dose 6.3 g/a
# Outline: as §9
# [35] = test system: common chickweed; test: as above; conditions: dose 6.3 g/a
# Outline: as §9
# [36] = test system: Italian ryegrass; test: as above; conditions: dose 6.3 g/a
# Outline: as §9
smiles,measurement,setting,value
CCOC(=O)N(c1ccccc1CN1CCOCCC1=O)S(=O)(=O)C(F)(F)F [Compound V-2],"A: barnyardgrass, herbicidal effect (evaluation scale 0-5)",[1],4 (mortality of at least 70% and less than 90%)
same,"C: ducksalad, herbicidal effect (evaluation scale 0-5)",[2],5 (mortality of 90% or above (nearly complete death))
same,"B: bulrush, herbicidal effect (evaluation scale 0-5)",[3],5 (mortality of 90% or above (nearly complete death))
same,"a: transplanted rice, effect on crop (evaluation scale 0-5)",[4],0 (mortality of less than 5% (almost ineffective))
same,"f: sugar beet, effect on crop",[5],3 (mortality of at least 40% and less than 70%)
same,"e: wheat, effect on crop",[6],0 (mortality of less than 5% (almost ineffective))
same,"b: corn, effect on crop",[7],1 (mortality of at least 5% and less than 20%)
same,"c: soybean, effect on crop",[8],3 (mortality of at least 40% and less than 70%)
same,"d: direct-seeded rice, effect on crop",[9],3 (mortality of at least 40% and less than 70%)
same,"L: common lambsquater, herbicidal effect",[10],5 (mortality of 90% or above (nearly complete death))
same,"D: large crabgrass, herbicidal effect",[11],2 (mortality of at least 20% and less than 40%)
same,"J: common ragweed, herbicidal effect",[12],5 (mortality of 90% or above (nearly complete death))
same,"G: water foxtail, herbicidal effect",[13],5 (mortality of 90% or above (nearly complete death))
same,"A: barnyardgrass, herbicidal effect",[14],5 (mortality of 90% or above (nearly complete death))
same,"O: beadstraw, herbicidal effect",[15],3 (mortality of at least 40% and less than 70%)
same,"E: giant foxtail, herbicidal effect",[16],4 (mortality of at least 70% and less than 90%)
same,"F: wild oat, herbicidal effect",[17],0 (mortality of less than 5% (almost ineffective))
same,"N: common chickweed, herbicidal effect",[18],4 (mortality of at least 70% and less than 90%)
same,"H: Italian ryegrass, herbicidal effect",[19],0 (mortality of less than 5% (almost ineffective))
same,"effect on crop, f: sugar beet",[20],4 (mortality of at least 70% and less than 90%)
same,"effect on crop, e: wheat",[21],0 (mortality of less than 5% (almost ineffective))
same,"effect on crop, b: corn",[22],0 (mortality of less than 5% (almost ineffective))
same,"effect on crop, c: soybean",[23],0 (mortality of less than 5% (almost ineffective))
same,"effect on crop, d: direct-seeded rice",[24],0 (mortality of less than 5% (almost ineffective))
same,"A: barnyardgrass, herbicidal effect (evaluation scale 0-5)",[25],5 (mortality of 90% or above (nearly complete death))
same,"C: ducksalad, herbicidal effect (evaluation scale 0-5)",[26],5 (mortality of 90% or above (nearly complete death))
same,"B: bulrush, herbicidal effect (evaluation scale 0-5)",[27],5 (mortality of 90% or above (nearly complete death))
same,"herbicidal effect, L: common lambsquater",[28],5 (mortality of 90% or above (nearly complete death))
same,"herbicidal effect, D: large crabgrass",[29],1 (mortality of at least 5% and less than 20%)
same,"herbicidal effect, J: common ragweed",[30],5 (mortality of 90% or above (nearly complete death))
same,"herbicidal effect, G: water foxtail",[31],5 (mortality of 90% or above (nearly complete death))
same,"herbicidal effect, A: barnyardgrass",[32],4 (mortality of at least 70% and less than 90%)
same,"herbicidal effect, E: giant foxtail",[33],3 (mortality of at least 40% and less than 70%)
same,"herbicidal effect, F: wild oat",[34],0 (mortality of less than 5% (almost ineffective))
same,"herbicidal effect, N: common chickweed",[35],5 (mortality of 90% or above (nearly complete death))
same,"herbicidal effect, H: Italian ryegrass",[36],0 (mortality of less than 5% (almost ineffective))
